Measured values: PMC6017115, “Inhibitory Effect of Sauchinone on UDP-Glucuronosyltransferase (UGT) 2B7 Activity” (Molecules : A Journal of Synthetic Chemistry and Natural …, 2018)

Key:
[1] = biological target: T1, UGT1A3 (Homo sapiens, UniProt P35503); assay: Inhibition of UGT1A3 (chenodeoxy cholic acid glucuronidation) in human liver microsomes; type: in vitro ADME; conditions: substrate 15 μM chenodeoxy cholic acid, mean (minimum–maximum)
T1 construct: The reaction mixture containing 0.25 mg/mL protein of HLM; tissue Corning Life Sciences 452156; host or cells: pooled human liver microsomes, 50 donors
T1 sequence (P35503 29-534): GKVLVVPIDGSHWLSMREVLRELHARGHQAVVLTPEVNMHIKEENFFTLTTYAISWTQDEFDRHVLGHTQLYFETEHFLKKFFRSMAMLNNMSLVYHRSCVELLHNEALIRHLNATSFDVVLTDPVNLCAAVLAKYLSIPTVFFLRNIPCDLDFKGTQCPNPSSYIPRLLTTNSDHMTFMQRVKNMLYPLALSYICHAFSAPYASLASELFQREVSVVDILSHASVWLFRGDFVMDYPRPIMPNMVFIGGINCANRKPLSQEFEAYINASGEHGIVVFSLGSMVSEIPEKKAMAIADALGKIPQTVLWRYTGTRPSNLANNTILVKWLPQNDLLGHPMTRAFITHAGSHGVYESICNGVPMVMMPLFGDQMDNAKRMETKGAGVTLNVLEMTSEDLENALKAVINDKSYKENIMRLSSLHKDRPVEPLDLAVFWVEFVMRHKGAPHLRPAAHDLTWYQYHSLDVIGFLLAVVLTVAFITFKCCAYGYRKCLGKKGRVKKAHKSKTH
Experimental: Their IC50 values were compared to that of sauchinone. […] UGT-mediated activities in the presence of sauchinone as an inhibitor were expressed as percentages of corresponding control values (in absence of sauchinone). From percentages of control activity versus inhibitor concentrations, a sigmoid shaped curve was fitted to the data and IC50 as an enzyme inhibition parameter was calculated by fitting the Hill equation to the data using GraphPad Prism 5 (GraphPad Software Inc., San Diego, CA, USA).

[2] = biological target: T2, Ugt1a1 (Mus musculus, UniProt Q63886); assay: Inhibition of Ugt1a1 (β-estradiol) in mice liver microsomes; type: in vitro ADME; conditions: pH 7.6, probe β-estradiol (10 μM, in UGT substrate cocktail), read-out: IC50 of Ugt1a1-catalyzed β-estradiol
T2 construct: from tissue; host or cells: mouse liver microsomes prepared in house
T2 sequence (Q63886 30-535): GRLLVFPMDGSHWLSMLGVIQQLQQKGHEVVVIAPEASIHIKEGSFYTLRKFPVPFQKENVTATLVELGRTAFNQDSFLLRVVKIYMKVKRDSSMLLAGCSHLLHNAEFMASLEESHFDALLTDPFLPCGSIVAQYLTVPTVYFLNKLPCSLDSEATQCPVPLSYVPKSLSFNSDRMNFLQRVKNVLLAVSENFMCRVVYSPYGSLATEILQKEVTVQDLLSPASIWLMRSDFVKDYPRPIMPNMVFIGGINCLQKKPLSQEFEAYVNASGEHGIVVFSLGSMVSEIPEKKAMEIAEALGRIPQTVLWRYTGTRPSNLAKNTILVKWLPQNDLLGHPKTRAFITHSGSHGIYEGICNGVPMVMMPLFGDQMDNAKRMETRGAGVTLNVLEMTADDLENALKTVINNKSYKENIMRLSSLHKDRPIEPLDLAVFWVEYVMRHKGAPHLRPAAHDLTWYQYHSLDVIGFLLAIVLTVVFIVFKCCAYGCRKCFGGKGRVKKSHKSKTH
Experimental: Their IC50 values were compared to that of sauchinone. […] Mice were sacrificed and then livers were removed and rinsed with saline. After weighing the livers, they were homogenized with a four-fold volume of ice-cold homogenizing buffer (0.154 M KCl, 50 mM Tris-base, 1 mM EDTA, pH 7.4). After centrifugation for 35 min at 9000× g and 4 °C, the supernatants were centrifuged for 95 min at 100,000× g and at 4 °C. The supernatants were discarded and the pellets were homogenized again with ice-cold homogenizing buffer. These aliquots were stored at −80 °C. The subsequent process to evaluate the inhibitory effects of sauchinone on UGT activities in MLM was the same as those using HLM. UGT-mediated activities in the presence of sauchinone as an inhibitor were expressed as percentages of corresponding control values (in absence of sauchinone). From percentages of control activity versus inhibitor concentrations, a sigmoid shaped curve was fitted to the data and IC50 as an enzyme inhibition parameter was calculated by fitting the Hill equation to the data using GraphPad Prism 5 (GraphPad Software Inc., San Diego, CA, USA).

[3] = biological target: T3, UGT2B7 (Homo sapiens, UniProt P16662); assay: Enzyme kinetic assay (Ki, Dixon plot) of UGT2B7-mediated zidovudine glucuronidation; conditions: for inhibition mode on UGT2B7: Dixon plot, visual inspection
T3 sequence (P16662 24-529): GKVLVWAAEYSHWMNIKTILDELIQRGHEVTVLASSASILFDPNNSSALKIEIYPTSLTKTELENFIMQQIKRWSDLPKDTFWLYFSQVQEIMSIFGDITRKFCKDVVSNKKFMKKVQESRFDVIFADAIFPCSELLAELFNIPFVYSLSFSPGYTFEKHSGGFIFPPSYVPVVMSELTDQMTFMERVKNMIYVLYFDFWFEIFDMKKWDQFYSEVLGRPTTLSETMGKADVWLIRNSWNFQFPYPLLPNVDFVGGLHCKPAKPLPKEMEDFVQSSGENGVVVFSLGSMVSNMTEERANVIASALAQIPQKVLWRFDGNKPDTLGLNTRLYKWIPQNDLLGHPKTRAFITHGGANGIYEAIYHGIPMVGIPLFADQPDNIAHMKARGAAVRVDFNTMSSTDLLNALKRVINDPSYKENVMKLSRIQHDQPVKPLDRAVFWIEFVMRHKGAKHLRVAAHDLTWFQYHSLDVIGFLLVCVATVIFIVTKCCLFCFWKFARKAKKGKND
Experimental: Inhibitory effects of sauchinone on UGT1A1, 1A3, 1A4, 1A6, 1A9, and 2B7 activities were evaluated using HLMs. […] Spiked volume of UGT cocktail set was 1% (v/v) of total volume of mixture. […] The reaction was initiated by adding 5 mM UDPGA to a final volume of 150 μL and incubated at 37 °C for 15 or 60 min in a thermomixer at 500 rpm. Each reaction was stopped by adding 150 μL of ice-cold methanol containing 50 ng/mL IS. These mixtures were then centrifuged (12,000 rpm for 10 min at 4 °C) and 5 μL of the supernatant was injected into a UPLC-MS/MS system. […] Their IC50 values were compared to that of sauchinone. All inhibitors were dissolved in methanol (except for hecogenin, which was dissolved in dimethyl sulfoxide) and serially diluted to the required concentrations using the same solutions. The final concentration of organic solvent of inhibitors was 1% (v/v). All studies were performed in triplicate and mean values were used in the analysis. The half maximal inhibition constant (IC50) of sauchinone on UGT isoforms was estimated using GraphPad program.
Based on IC50 values, Ki values of sauchinone for UGT1A6 and 2B7 were determined. Concentrations of 0–200 μM of sauchinone were used. Other procedures were similar to those mentioned above in the study of reversible inhibitory effects of sauchinone. Inhibitory characteristics of sauchinone were initially estimated by nonlinear least squares regression analysis and Ki values were determined by Dixon plots.

C[C@@H]1[C@H]2c3cc4c(cc3O[C@@]35OCOC3=CC(=O)[C@H](C[C@H]1C)[C@@H]25)OCO4 [Sauchinone]
IC50 [1]: 43.9 µM | IC50 [2]: 152 µM | Ki [3]: 0.524 µM | inhibition mode on UGT2B7 [3]: noncompetitively inhibited | inhibition mode on UGT2B7 ([3]; listed as sauchinone): noncompetitive inhibition mode | Vmax for UGT2B7-mediated zidovudine glucuronidation with inhibitor ([3]; sauchinone as inhibitor at 50 μM (decrease from 31.5 at 0 μM)): 0.495 μM/min/mg protein
